Data on five molecules can be found in patent US7241793B2, “Phenyloxyalkanonic acid derivatives as hPPAR activators” (SmithKline Beecham Corporation, priority 2002, dated 2007).

In turn, `Cc1cc(CN(Cc2ccsc2)c2sc(-c3ccc(C(F)(F)F)cc3)nc2C)cc(C)c1OC(C)(C)C(=O)O` [Example 2, 2-[2,6-Dimethyl-4-({[4-methyl-2-(4-trifluoromethyl-phenyl)-thiazol-5-yl]-thiophen-3-ylmethyl-amino}-methyl)-phenoxy]-2-methyl-propionic acid] displayed a melting point of 90 to 100 °C.

With `Cc1cc(CN(Cc2ccc(F)cc2)c2cc(-c3ccc(C(F)(F)F)cc3)nn2C)cc(C)c1OC(C)(C)C(=O)O` [Example 14, 2-[4-({(4-Fluoro-benzyl)-[2-methyl-5-(4-trifluoromethyl-phenyl)-2H-pyrazol-3-yl]-amino}-methyl)-2,6-dimethyl-phenoxy]-2-methyl-propionic acid], the melting point is > 90 °C.

`Cc1cc(CN(Cc2ccco2)c2sc(-c3ccc(C(F)(F)F)cc3)nc2C)ccc1OC(C)(C)C(=O)O` [Example 93, 2-Methyl-2-(2-methyl-4-{([4-methyl-2-(4-trifluoromethylphenyl)thiazol-5-yl]furan-2-ylmethylamino)methyl}phenoxy)propionic acid] displayed a melting point of 80 °C.

In turn, `Cc1cc(CN(C)c2cc(-c3ccc(Cl)cc3)nn2C)cc(C)c1OC(C)(C)C(=O)O` [Example 6, 2-[4-({[5-(4-Chloro-phenyl)-2-methyl-2H-pyrazol-3-yl]-methyl-amino}-methyl)-2,6-dimethyl-phenoxy]-2-methyl-propionic acid] displayed a melting point of 158 °C.

`Cc1cc(CN(Cc2cccs2)c2sc(-c3ccc(C(F)(F)F)cc3)nc2C)ccc1OC(C)(C)C(=O)O` [Example 91, 2-Methyl-2-(2-methyl-4-{([4-methyl-2-(4-trifluoromethylphenyl)thiazol-5-yl-]thiophen-2-ylmethylamino)methyl}phenoxy)propionic acid] had a melting point of 100 °C.

For orientation: melting point means the temperature, or range, at which the solid turns liquid.
